Tested on: patients admitted to hospital with AMI

| Structure (SMILES) | actual number of deaths (386 exposed patients of the 6,699 cohort (FIG. 4A column 415)) | expected number of deaths (Monte Carlo simulation, 2,000 burn-in and 50,000 iterations (FIG. 4A column 420)) | in-house mortality percentage (count of deaths from the number receiving exposure) (Table 500 column 520, cohort of 6,699 AMI inpatients, 5.7% of the cohort died) |
| --- | --- | --- | --- |
| O=C(O)c1cn(C2CC2)c2cc(N3CCNCC3)c(F)cc2c1=O [Ciprofloxacin] | 129 | 28.3 |  |
| CC(C)c1c(C(=O)Nc2ccccc2)c(-c2ccccc2)c(-c2ccc(F)cc2)n1CC[C@@H](O)C[C@@H](O)CC(=O)O [atorvastatin] |  |  | 3.4% |
